# Experimental data from US12053447B2, “Oral solution and powder to liquid compositions of balsalazide” (NuBioPharma, LLC, priority 2019, dated 2024).
# Residues, ends and D or L forms follow the SMILES beside them.
# Columns and labels:
# [1] = Stability of sweetener aspartame in solution; assay type: physicochemical; settings: pH 7.0 and above
# [2] = Storage stability of liquid balsalazide solution (HPLC assay, settling); assay type: physicochemical
# Protocol: The storage stability of two balsalazide disodium solutions, 750 mg/5 ml, with the formulations described in TABLE 6 and TABLE 7 with pH of 4.8 and pH 7.2, respectively were subjected to accelerated stability testing at 40° C. and at room temperature (25° C.). Balsalazide solutions stored in amber PVC bottles (30 ml volume) were tested over a 90-day storage period. The amount of balsalazide and its known impurities were determined by a validated high pressure liquid chromatography (HPLC) assay after 0 day (initial), 45 days, and 90 days and results are shown in TABLE 6 below. Five minor impurities (less than 0.1% each) were identified in balsalazide solution initially on day 0.
stability in solution [1],stability of oral solution ([2]; acidic conditions of pH below 7.0),stability of oral solution ([2]; pH of 7.0 or higher),Compound
unstable,–,–,COC(=O)[C@H](Cc1ccccc1)NC(=O)[C@@H](N)CC(=O)O [aspartame] (H-Asp-Phe-OMe)
–,unstable,stable,O=C(O)CCNC(=O)c1ccc(/N=N/c2ccc(O)c(C(=O)O)c2)cc1 [balsalazide]
